Patent US11945806B2, “Stabilization of amyloidogenic immunoglobulin light chains” (The Scripps Research Institute, priority 2019, dated 2024)

The compounds below were run against WIL-FL (Homo sapiens, UniProt P01721) (assay: Unlabeled LC Protease Sensitivity Assay (proteinase K)). Conditions: small molecule 10 μM, WIL-FL 5 μM, proteinase K 50 nM, 2 hours at 37° C.
Format: biochemical
Description: Unlabeled LC Protease Sensitivity Assay. WIL-FL (5 μM) in phosphate-buffered saline (PBS, pH 7.4)+0.02% Pluronic F-127 was incubated with proteinase K (50 nM) with small molecule (10 μM) in 1% DMSO vehicle, or vehicle alone. After 2 hours at 37° C., reactions were quenched with 2 mM phenylmethyl sulfonyl fluoride in methanol and centrifuged at 14,000 rpm for 2 minutes. Remaining WIL-FL was quantified by injecting 10 μL of the supernatant into a Waters Acquity H-Class Bio-UPLC (ultra performance liquid chromatography) instrument equipped with a BEH200 analytical size-exclusion column (1.7 μm, 4.6×150 mm) under isocratic conditions (0.2 mL/min, PBS+1 mM EDTA, 2400 psi backpressure, 15 min), monitoring absorbance at 280 nm. Activity of each compound is given as fold protection from protease=(A_compound−A_vehicle)/(A_no_protease−A_vehicle), where each “A” corresponds to peak integration of the respective treatment.

SMILES | Protection (fold protection of LC from protease)
CCN(CC)c1ccc2c(C)c(CCOC(=O)N3CCC(CO)C3)c(=O)oc2c1 (stereo not shown) [Compound 106, 2-(7-(diethylamino)-4-methyl-2-oxo-2H-chromen-3-yl)ethyl 3-(hydroxymethyl)pyrrolidine-1-carboxylate] | A (A < 0.3))
CCN(CC)c1ccc2c(C)c(CCOC(=O)N3CCN(c4cnccn4)CC3)c(=O)oc2c1 [Compound 109, 2-(7-(diethylamino)-4-methyl-2-oxo-2H-chromen-3-yl)ethyl 4-(pyrazin-2-yl)piperazine-1-carboxylate] | A (A < 0.3))
Cc1cc(=O)oc2cc(NCCCF)ccc12 [Compound 251, 7-((3-fluoropropyl)amino)-4-methyl-2H-chromen-2-one] | A (A < 0.3))
CCN(CC)c1ccc2c(C)c(CCOC(=O)N3CCS(=O)(=O)CC3)c(=O)oc2c1 [Compound 112, 2-(7-(diethylamino)-4-methyl-2-oxo-2H-chromen-3-yl)ethyl thiomorpholine-4-carboxylate 1,1-dioxide] | A (A < 0.3))
CCN(CC)c1ccc2c(C)c(CCOC(=O)NCCc3ccncc3)c(=O)oc2c1 [Compound 84, 2-(7-(diethylamino)-4-methyl-2-oxo-2H-chromen-3-yl)ethyl (2-(pyridin-4-yl)ethyl)carbamate] | A (A < 0.3))
CCN(CC)c1ccc2c(C)c(CCN3C(=O)NC4(CCN(c5ncc(C#N)cn5)CC4)C3=O)c(=O)oc2c1 [Compound 189, 2-(3-(2-(7-(diethylamino)-4-methyl-2-oxo-2H-chromen-3-yl)ethyl)-2,4-dioxo-1,3,8-triazaspiro[4.5]decan-8-yl)pyrimidine-5-carbonitrile] | A (A < 0.3))
CCN(CC)c1ccc2c(C)c(CCOC(=O)N3CCC(C)(O)C3)c(=O)oc2c1 (stereo not shown) [Compound 111, 2-(7-(diethylamino)-4-methyl-2-oxo-2H-chromen-3-yl)ethyl 3-hydroxy-3-methylpyrrolidine-1-carboxylate] | A (A < 0.3))
CCN(CC)c1ccc2c(C)c(CCOC(=O)NCC3CCCNC3)c(=O)oc2c1 (stereo not shown) [Compound 146, 2-(7-(diethylamino)-4-methyl-2-oxo-2H-chromen-3-yl)ethyl (piperidin-3-ylmethyl)carbamate] | B (3 ≤ B < 0.6)
Cc1cc(=O)oc2cc(C(=O)NCc3c[nH]c4ccccc34)ccc12 [Compound 236, N-((1H-indol-3-yl)methyl)-4-methyl-2-oxo-2H-chromene-7-carboxamide] | A (A < 0.3))
CCN(CC)c1ccc2c(C)c(CCOC(=O)NCc3cccc(-c4nc[nH]c4C)c3)c(=O)oc2c1 [Compound 160, 2-(7-(diethylamino)-4-methyl-2-oxo-2H-chromen-3-yl)ethyl (3-(5-methyl-1H-imidazol-4-yl)benzyl)carbamate] | C (C ≥ 0.6)
C=C(C)CNc1ccc2c(C)cc(=O)oc2c1 [Compound 244, 4-methyl-7-((2-methylallyl)amino)-2H-chromen-2-one] | A (A < 0.3))
CCNc1ccc2c(C)cc(=O)oc2c1 [Compound 270, 7-(ethylamino)-4-methyl-2H-chromen-2-one] | A (A < 0.3))
CCN(CC)c1ccc2c(C)c(CCOC(=O)NCc3cccc(CN(C)C)c3)c(=O)oc2c1 [Compound 135, 2-(7-(diethylamino)-4-methyl-2-oxo-2H-chromen-3-yl)ethyl (3-((dimethylamino)methyl)benzyl)carbamate] | C (C ≥ 0.6)
CCN(CC)c1ccc2c(CCCOC(=O)NCc3cccc(-c4c[nH]cn4)c3)cc(=O)oc2c1 [Compound 304, 3-(7-(diethylamino)-2-oxo-2H-chromen-4-yl)propyl (3-(1H-imidazol-4-yl)benzyl)carbamate] | A (A < 0.3))
CCN(CC)c1ccc2c(C)c(CCNC(=O)NCc3ccc(-c4ccccc4)cc3)c(=O)oc2c1 [Compound 283, 1-([1,1′-biphenyl]-4-ylmethyl)-3-(2-(7-(diethylamino)-4-methyl-2-oxo-2H-chromen-3-yl)ethyl)urea] | A (A < 0.3))

The next lines start with the values.

Protection (fold protection of LC from protease) | SMILES
A (A < 0.3)) | CCN(CCc1ccccc1)c1ccc2c(C)cc(=O)oc2c1 [Compound 37, 7-(ethyl(phenethyl)amino)-4-methyl-2H-chromen-2-one]
A (A < 0.3)) | CCCN(C)c1ccc2c(C)cc(=O)oc2c1 [Compound 253, 4-methyl-7-(methyl(propyl)amino)-2H-chromen-2-one]
C (C ≥ 0.6) | CCN(CC)c1ccc2c(C)c(CCN3CC4(CCN(c5ncnc6[nH]ncc56)CC4)NC3=O)c(=O)oc2c1 [Compound 222, 3-(2-(7-(diethylamino)-4-methyl-2-oxo-2H-chromen-3-yl)ethyl)-8-(1H-pyrazolo[3,4-d]pyrimidin-4-yl)-1,3,8-triazaspiro[4.5]decan-2-one]
C (C ≥ 0.6) | CCN(CC)c1ccc2c(C)c(CCN3C(=O)NC4(CCN(c5ncnc6[nH]ncc56)CC4)C3=O)c(=O)oc2c1 [Compound 192, 3-(2-(7-(diethylamino)-4-methyl-2-oxo-2H-chromen-3-yl)ethyl)-8-(1H-pyrazolo[3,4-d]pyrimidin-4-yl)-1,3,8-triazaspiro[4.5]decane-2,4-dione]
B (3 ≤ B < 0.6) | CCN(CC)c1ccc2c(C)c(CCN3C(=O)NC4(CCN(C(=O)c5cnccn5)C4)C3=O)c(=O)oc2c1 (stereo not shown) [Compound 211, 3-(2-(7-(diethylamino)-4-methyl-2-oxo-2H-chromen-3-yl)ethyl)-7-(pyrazine-2-carbonyl)-1,3,7-triazaspiro[4.4]nonane-2,4-dione]
A (A < 0.3)) | CCN(CC)c1ccc2c(C)c(CCOC(=O)N3CC(C(=O)OC)C3)c(=O)oc2c1 [Compound 104, 1-(2-(7-(diethylamino)-4-methyl-2-oxo-2H-chromen-3-yl)ethyl) 3-methyl azetidine-1,3-dicarboxylate]
B (3 ≤ B < 0.6) | CCN(CC)c1ccc2c(C)c(CCNC(=O)NCc3cccc(-c4ccccc4)c3)c(=O)oc2c1 [Compound 284, 1-([1,1′-biphenyl]-3-ylmethyl)-3-(2-(7-(diethylamino)-4-methyl-2-oxo-2H-chromen-3-yl)ethyl)urea]
A (A < 0.3)) | Cc1cc(=O)oc2cc(C(=O)Nc3ccc4ccccc4n3)ccc12 [Compound 233, 4-methyl-2-oxo-N-(quinolin-2-yl)-2H-chromene-7-carboxamide]
B (3 ≤ B < 0.6) | CCN(CC)c1ccc2c(C)c(CCOC(=O)NCC3CCN(C)CC3)c(=O)oc2c1 [Compound 148, 2-(7-(diethylamino)-4-methyl-2-oxo-2H-chromen-3-yl)ethyl ((1-methylpiperidin-4-yl)methyl)carbamate]
B (3 ≤ B < 0.6) | Cc1c(CN2CCOCC2)c(=O)oc2cc(OCC(C)c3ccccc3)ccc12 (stereo not shown) [Compound 183, 4-methyl-3-(morpholinomethyl)-7-(2-phenylpropoxy)-2H-chromen-2-one]
C (C ≥ 0.6) | CCN(CC)c1ccc2c(C)c(CCOC(=O)NCc3cccc(NC(C)=O)c3)c(=O)oc2c1 [Compound 117, 2-(7-(diethylamino)-4-methyl-2-oxo-2H-chromen-3-yl)ethyl (3-acetamidobenzyl)carbamate]
A (A < 0.3)) | CCN(CC)c1ccc2c(C)cc(=O)n(C)c2c1 [Compound 52, 7-(diethylamino)-1,4-dimethylquinolin-2(1H)-one]
A (A < 0.3)) | CCN(CC)c1ccc2c(O)cc(=O)oc2c1 [Compound 27, 7-(diethylamino)-4-hydroxy-2H-chromen-2-one]
A (A < 0.3)) | C#CCN(C)c1ccc2c(C)cc(=O)oc2c1 [Compound 257, 4-methyl-7-(methyl(prop-2-yn-1-yl)amino)-2H-chromen-2-one]
A (A < 0.3)) | CCN(CC)c1ccc2c(C)c(CCOC(=O)N3CCN(S(=O)(=O)C4CC4)CC3)c(=O)oc2c1 [Compound 107, 2-(7-(diethylamino)-4-methyl-2-oxo-2H-chromen-3-yl)ethyl 4-(cyclopropylsulfonyl)piperazine-1-carboxylate]
A (A < 0.3)) | Cc1cc(=O)oc2cc(N(C)CC3CC3)ccc12 [Compound 255, 7-((cyclopropylmethyl)(methyl)amino)-4-methyl-2H-chromen-2-one]
B (3 ≤ B < 0.6) | CCN(CC)c1ccc2c(C)c(CCNC(=O)NCc3cccc(Cl)n3)c(=O)oc2c1 [Compound 282, 1-((6-chloropyridin-2-yl)methyl)-3-(2-(7-(diethylamino)-4-methyl-2-oxo-2H-chromen-3-yl)ethyl)urea]
A (A < 0.3)) | CCN(CC)c1ccc2c(CCCOC(=O)NCc3cccc(CCC(=O)OC)c3)cc(=O)oc2c1 [Compound 306, Methyl 3-(3-((((3-(7-(diethylamino)-2-oxo-2H-chromen-4yl)propoxy)carbonyl)amino)methyl)phenyl)propanoate]
C (C ≥ 0.6) | CCN(CC)c1ccc2c(C)c(CCNC(=O)NCc3cccc(OCC(=O)OC)c3)c(=O)oc2c1 [Compound 312, Methyl 2-(3-((3-(2-(7-(diethylamino)-4-methyl-2-oxo-2H-chromen-3-yl)ethyl)ureido)methyl)phenoxy)acetate]
